Assay results taken from patent US20210171564A1, “COMPOSITIONS AND METHODS FOR THE TREATMENT OF CANCER” (Cellix Bio Private Limited, priority 2018, published 2021).
Several values for one entry are separate records, joined by “and”; a condition that tells them apart may be missing. Equal entries are not always repeated. Entries after “also recorded” stand apart in the source; their conditions may differ.

What was measured:
[1] = system: HCT116 human colon cancer xenograft; assay: Anti-tumor efficacy in HCT-116 xenograft model in Foxn1 nude mice (tumor growth inhibition); format: in vivo, Foxn1 athymic nude female mice; conditions: for % Tumor Growth Inhibition (% TGI): oral; for tumor growth inhibition: day not given
Source text: Evaluation of Anti-Tumor Efficacy of Test Compound (CLX-Syn-G155A-C03) in HCT-116 Xenograft Model in Fox N1 Nude Mice:
(§1) The purpose of this study was to evaluate the anti-tumor activity of test compound administered by oral gavage, for a period of 17 days in HCT116 human colon cancer xenograft bearing Foxn1 athymic nude mice. The anti-tumor activity of test compound was compared with capecitabine. Foxn1 athymic nude female mice (7-8 weeks) were implanted with human colon cancer cell line, HCT116 (5 million cells/site) subcutaneously in the dorsal right flank. The animals were randomized (N=10) into different treatment groups as vehicle control, test compound (300 mg/kg, QD, 150 mg/kg BID, 1000 mg/kg QD and 500 mg/kg BID or capecitabine (1000 mg/kg QD and 500 mg/kg BID) based on the tumor volume, when the subcutaneous tumor reached a volume in the range of 70-137 mm^3.
(§2) The animals in the control group were dosed with the formulation used for test compound, which consisted of 0.5% w/v HPMC+0.5% w/v Tween-80 in purified water (q.s) at the dose volume of […]. The Capecitabine formulation was prepared using 0.5% Hydroxypropyl methylcellulose (HPMC E 15) in 40 mM citrate buffer, pH 6.0 at the dose volume of 10 mL/kg. Treatment to animals was performed initially for ten days dosing followed by 2 off doses days and then continued for another 7 days. […] Tumor growth inhibition (TGI) was calculated based on the tumor volume on a given day as compared to that on day 1. On day 19, blood samples were collected from test compound 1000 mg/kg QD and Capecitabine 1000 mg/kg QD groups at 0 hr; prior to dosing (first dose administration in morning) and at 0.5, 1, 2, 4, 8 and 24 hours post dosing to evaluate the pharmacokinetic parameters of various metabolites (5′-DFCR, 5′-DFUR, 5-Fluorouracil and valproic acid).

[2] = Toxicity profile in the xenograft study (mortality, clinical signs, body weight); format: in vivo; conditions: for Diarrhea / Hunch back / Morality: animals affected/10
Source text: as §1, §2

| SMILES | % Tumor Growth Inhibition (% TGI) ([1]; 500 mg/kg BID, day 4) [%] | % Tumor Growth Inhibition (% TGI) ([1]; 500 mg/kg BID, day 6) [%] | % Tumor Growth Inhibition (% TGI) ([1]; 500 mg/kg BID, day 8) [%] | % Tumor Growth Inhibition (% TGI) ([1]; 500 mg/kg BID, day 11) [%] | % Tumor Growth Inhibition (% TGI) ([1]; 500 mg/kg BID, day 13) [%] | % Tumor Growth Inhibition (% TGI) ([1]; 500 mg/kg BID, day 15) [%] | tumor growth inhibition ([1]; 1000 mg/kg QD (once daily)) [%] | % Tumor Growth Inhibition (% TGI) ([1]; 1000 mg/kg QD, day 4) [%] | % Tumor Growth Inhibition (% TGI) ([1]; 1000 mg/kg QD, day 6) [%] | % Tumor Growth Inhibition (% TGI) ([1]; 1000 mg/kg QD, day 8) [%] | % Tumor Growth Inhibition (% TGI) ([1]; 1000 mg/kg QD, day 11) [%] | % Tumor Growth Inhibition (% TGI) ([1]; 1000 mg/kg QD, day 13) [%] | % Tumor Growth Inhibition (% TGI) ([1]; 1000 mg/kg QD, day 15) [%] | further results |
| --- | --- | --- | --- | --- | --- | --- | --- | --- | --- | --- | --- | --- | --- | --- |
| CCCC(CCC)C(=O)Nc1nc(=O)n([C@@H]2O[C@H](C)[C@@H](OC(C)=O)[C@H]2OC(C)=O)cc1F [Test Compound, (2R,3R,4R,5R)-2-(5-fluoro-2-oxo-4-(2-propylpentanamido)pyrimidin-1(2H)-yl)-5-methyltetrahydrofuran-3,4-diyl diacetate] | 76.3 | 74.8 | 81.3 | 87.7 | 95.4 | 96.6 | > 90 | 66.0 | 70.5 | 73.3 | 78.4 | 88.1 | 90.9 | % Tumor Growth Inhibition (% TGI) ([1]; 150 mg/kg BID, day 4): 37.4%; % Tumor Growth Inhibition (% TGI) ([1]; 150 mg/kg BID, day 6): 40.2%; % Tumor Growth Inhibition (% TGI) ([1]; 150 mg/kg BID, day 8): 39.2%; % Tumor Growth Inhibition (% TGI) ([1]; 150 mg/kg BID, day 11): 47.6%; % Tumor Growth Inhibition (% TGI) ([1]; 150 mg/kg BID, day 13): 55.7%; % Tumor Growth Inhibition (% TGI) ([1]; 150 mg/kg BID, day 15): 54.7%; % Tumor Growth Inhibition (% TGI) ([1]; 300 mg/kg QD, day 4): 58.8%; % Tumor Growth Inhibition (% TGI) ([1]; 300 mg/kg QD, day 6): 51.0%; % Tumor Growth Inhibition (% TGI) ([1]; 300 mg/kg QD, day 8): 55.5%; % Tumor Growth Inhibition (% TGI) ([1]; 300 mg/kg QD, day 11): 60.7%; % Tumor Growth Inhibition (% TGI) ([1]; 300 mg/kg QD, day 13): 67.2%; % Tumor Growth Inhibition (% TGI) ([1]; 300 mg/kg QD, day 15): 70.4%; antitumor activity of once a day schedule versus twice a day schedule (150 mg/kg BID) ([1]; 300 mg/kg/day once daily): better antitumor activity; antitumor activity against HCT-116 human colon cancer xenografts ([1]; oral gavage, QD and BID dosage regimen): statistically significant, dose dependent tumor growth inhibition; also recorded: statistically significant dose dependent antitumor activity |
| CCCCCOC(=O)Nc1nc(=O)n([C@@H]2O[C@H](C)[C@@H](O)[C@H]2O)cc1F [Capecitabine, reference compound] | 87.0 | 82.9 | 85.8 | 89.3 | 93.6 | 94.1 | 94.1 | 76.8 | 71.5 | 71.7 | 77.2 | 86.9 | 87.6 | Mean % body weight reduction ([2]; 500 mg/kg BID): −16.8%; Diarrhea ([2]; 500 mg/kg BID): 1/10; Hunch back ([2]; 500 mg/kg BID): 3/10; Morality ([2]; 500 mg/kg BID): 2/10; Mean % body weight reduction ([2]; 1000 mg/kg QD): −24.5%; Diarrhea ([2]; 1000 mg/kg QD): 0/10; Hunch back ([2]; 1000 mg/kg QD): 3/10; Morality ([2]; 1000 mg/kg QD): no mortality and 0/10; tumor growth inhibition ([1]; 500 mg/kg BID): 87.6% |
